Data published in the NIST ThermoML archive (doi:10.1021/acs.jced.5b00412).
Numbers after ± are expanded uncertainties.

Conditions: 101.3 kPa, Liquid, Vibrating tube method

## NCCCO [3-amino-1-propanol]
293.15 K
  mass density: 987.5 ± 2.8 kg/m3
298.15 K
  mass density: 983.6 ± 2.8 kg/m3
303.15 K
  mass density: 979.6 ± 2.8 kg/m3
308.15 K
  mass density: 975.5 ± 2.8 kg/m3
313.15 K
  mass density: 971.5 ± 2.8 kg/m3
318.15 K
  mass density: 967.5 ± 2.8 kg/m3
323.15 K
  mass density: 963.4 ± 2.8 kg/m3
328.15 K
  mass density: 959.3 ± 2.8 kg/m3
333.15 K
  mass density: 955.8 ± 2.8 kg/m3
338.15 K
  mass density: 951.7 ± 2.8 kg/m3
343.15 K
  mass density: 947.6 ± 2.8 kg/m3
348.15 K
  mass density: 943.5 ± 2.8 kg/m3
353.15 K
  mass density: 939.3 ± 2.8 kg/m3
